Experimental data taken from ChEMBL document CHEMBL3507680, “University of Dundee, Gates Library screen for HepG2 cell viability”.

Experiment: Human HepG2 cell viability assay in 384 well format
Assay type: toxicity, cell-based
Set-up: dose 125 nL, time 70.5 hour; concentration not given beside the values
Conditions: HepG2 cells, read-out: Inhibition

SMILES | cytotoxicity at 70.5 h [%]
O=C(NCCOc1ncc(Cl)cc1Cl)NCc1ccncc1 | -1.68
CCC1CN(CC(=O)NCCOC)CCO1 (stereo unspecified) | -4.46
O=C(CN1CCCC(c2noc(C3CC3)n2)C1)N1CCCC1 (stereo unspecified) | 4.7
Cc1nccc(N[C@H]2CN(C(=O)CCN3CCCC3=O)C[C@@H]2C(C)C)n1 | -19.6
O=C(c1cnccn1)N1CCC2(CCN(Cc3ccsc3)C2)CC1 | -5.07
CNCC(=O)N1CCCC1c1n[nH]cc1-c1ccccc1F (stereo unspecified) | 0.833
Cc1ccc(C(=O)NCc2ccc(N(C)C)cc2)cn1 | -10.4
Cc1nc(CN2CCN(C(=O)c3ccn(C)c(=O)c3)CC2)cs1 | 7.44
CCOc1cccnc1C(=O)N1CCC(c2ccccc2OC)C1 (stereo unspecified) | -8.54
COCc1ncc(CN2CCC3(CCNC(=O)CC3)CC2)cn1 | -5.72
CCc1cc(=O)n(CCNC(=O)Nc2ccc(OC(F)(F)F)cc2)cn1 | -3.46
c1ccc(CCN2CCCC2c2ccnc(Nc3cnccn3)n2)cc1 (stereo unspecified) | -3.41
O=C(c1cscn1)N1CCC2(CN(Cc3ccncc3)C2)C1 | -9.93
Cc1ccc(CN2CCC[C@]3(C(=O)O)CN(C)C[C@@H]3C2)s1 | -14.3
Cc1noc(CNc2cc3c(cc2Cl)NC(=O)CO3)n1 | -10.2
CCN(CCO)Cc1cn(-c2cccc(F)c2)nc1-c1ccc(C)o1 | -14.6
O=C(c1c[nH]cn1)N1CCC(n2cc(-c3ccsc3)nn2)CC1 | 18
CCC1c2ccccc2CCN1C(=O)c1ccc(OC)nn1 (stereo unspecified) | -0.324
CCN(CC1CCOC1)C(=O)c1ccccc1S(C)(=O)=O (stereo unspecified) | -4.17
CNC(=O)c1nn(C)cc1NC(=O)C(C)n1ncc(Cl)c1C (stereo unspecified) | -6.57
CN(C)CCN1CCCC12CCN(C(=O)c1cccn1C)CC2 | -15.1

SMILES | cytotoxicity at 70.5 h [%]
CCCC(=O)NC1CCCN(c2nc3ccccc3cc2CO)C1 (stereo unspecified) | 13.7
Cc1oncc1C(=O)N[C@@H]1CN(C2CCC2)C[C@@H]2CCCO[C@@H]21 | -0.67
O=C(N1CCSCC1)C1(O)Cc2ccccc2C1 | -2.54
O=C(COC[C@]12COC[C@H]1CN(C1CCC1)C2)N1CCCC1 | 3.04
CCCn1cnc2c1CN(S(=O)(=O)Cc1ccccc1)[C@H](C(=O)OC)C2 | 0.651
CN(C)c1ncccc1CNC(=O)CCNc1ncccn1 | -9.01
Cc1cc(SCC(=O)O)nc2nn(CC(F)F)c(C)c12 | -1.44
Cc1nccn1[C@@H]1CC[C@@H](N(C)S(=O)(=O)c2cccc(F)c2)[C@H]1O | -0.727
CC(C)(C)OC(=O)NCC1CCCCN1Cc1cccc(C(N)=O)c1 (stereo unspecified) | 1.21
CC(C)Cc1cc(C(=O)NC(C)(C)c2nnc(N)s2)n(C)n1 | -6.76
Cc1cc(C)nc(C2CCCNC2)n1 (stereo unspecified) | 17.9
Nc1nccnc1C(=O)NCCCNc1ccc(C(F)(F)F)cn1 | 2.59
c1cncc(COCc2nnc3n2CCN(Cc2cccs2)C3)c1 | 12.3
CC(NC(=O)C1CCCCC1)c1cc(O)nc(-c2cccnc2)n1 (stereo unspecified) | -4.35
Cn1cc(C2CCCN2CCCn2c(=O)oc3ccccc32)cn1 (stereo unspecified) | 12.6
O=C(NCCn1ccnc1)N1CCCC1c1ccsc1 (stereo unspecified) | -4.3
CCOC(=O)NC(=O)CSC(C)c1ccccc1F (stereo unspecified) | -14.4
CC(O)CN1CCC(CN(C)CC(=O)NC2CCOCC2)CC1 (stereo unspecified) | -2.54
Cc1ccc([C@@]2(O)CC[C@@H]3CN(S(=O)(=O)c4cn(C)nc4C)C[C@@H]32)cc1 | -2.34
CC(C)(C)S(=O)(=O)CCNC(=O)NCCCc1cccc(F)c1 | 29
CN(Cc1cccnc1)C[C@H]1OC[C@@H]2CCN(c3ncccn3)C[C@@H]21 | -0.858

SMILES | cytotoxicity at 70.5 h [%]
Cc1nc(C)c(C(=O)NCCNC(=O)Cc2cccc(F)c2)s1 | -9.52
CCS(=O)(=O)N1CCC2(C1)C(=O)N(C)CCN2Cc1ccncc1 (stereo unspecified) | -7.36
COc1ccccc1OCC(=O)NCC(C)(O)C1CC1 (stereo unspecified) | -15.3
O=C1N(Cc2ccc(F)c(F)c2)CCCC1(O)CNCc1cccnc1 (stereo unspecified) | -4.19
NC1(c2nc(C(F)(F)F)cc(=O)[nH]2)CCCC1 | 21.9
Cn1c(Cn2ccnc2)nnc1C1CCN(C(=O)c2cccnc2)CC1 | -10.4
CNC(=O)c1sc(C(NC(=O)c2ccccc2)C2CC2)nc1C (stereo unspecified) | -4.95
Cc1cc(N2CCC(C(=O)O)(n3ccc(C(C)(C)C)n3)CC2)nc(N)n1 | 0.151
Cc1cnc(N2CC[C@@H]3OC(COCC(=O)N(C)C)CC[C@@H]32)nc1 (stereo partly specified) | -117
Cn1nccc1CCNC(=O)[C@H]1CNC[C@H](C(=O)N2CCCC2)C1 | 0.341
O=C(Cc1ccsc1)N1CCCC(c2cc(C(F)F)n3ncnc3n2)C1 (stereo unspecified) | 14.6
CC(C)c1noc(C2CCN(C(=O)C3CCCO3)CC2)n1 (stereo unspecified) | -11.9
c1cncc(OCC2CC3(CCN(CC4CC4)CC3)CO2)c1 (stereo unspecified) | -10.5
Cn1cnnc1C1CCN(C(=O)c2cc(-c3ccccc3)on2)CC1 | 25.4
Cc1ccc(-c2cc(C(=O)NCC3CCOC3)n[nH]2)s1 (stereo unspecified) | 20.2
O=C(NC1CCS(=O)(=O)C1)c1ccccc1SCc1cscn1 (stereo unspecified) | -9.17
O=c1c(NCCNCCO)c(N2CCN(Cc3ccccc3)CC2)c1=O | -3.52
O=C(NC1CCN(c2ccccc2OC(F)F)C1)c1cccnc1 (stereo unspecified) | -4.78
CNc1nccc(-c2cn(C)nc2C)n1 | 1.94
CC(Cn1ccnc1)NC(=O)NCc1ccccn1 (stereo unspecified) | -15.6
CC(c1ccccc1)n1c(SCC(=O)O)nnc1-c1ccccc1Cl (stereo unspecified) | -4

SMILES | cytotoxicity at 70.5 h [%]
Cn1c(-c2cc3n(n2)CCCN(CC(=O)O)C3)nc2ccccc21 | 22.8
O=C(CNC(=O)c1ccc2c(c1)CCC2)NCCNc1ncccn1 | -14.4
COCC(=O)N1CCN(C)C(=O)C(Cc2ccccc2-c2cccs2)C1 (stereo unspecified) | 1.61
CC(C)[C@H](NS(C)(=O)=O)C(=O)NCc1cc(-c2cccc(Cl)c2)nn1C | 6.72
CCCn1cc(CNCC(c2ccc(C)s2)N2CCOCC2)cn1 (stereo unspecified) | 8.59
Cc1ccc(CN2CCc3c(C(=O)N(C)C)n[nH]c3C2)o1 | -8.34
CC(=O)c1ccc(-n2c(C)cn(CCS(C)(=O)=O)c2=O)cc1 | -11.2
O=c1[nH][nH]cc1-c1ccnc(NCCc2cccc(O)c2)n1 | -7.19
COc1c(C2CCCN2C(=O)CCNc2ncccn2)c(C)nn1C (stereo unspecified) | -10.7
COC1CCN(CC(=O)NCc2ccc(OCC(N)=O)cc2)CC1 | 0.0627
Cn1cc(C(=O)CC2CCCN2C(=O)c2ccc(Cl)cn2)cn1 (stereo unspecified) | -8.95
O=C(NC[C@]1(O)CN(Cc2ccc(F)cc2)C[C@H]1O)c1ccccn1 | -6.05
c1cnc(NCc2cncc3c2CCN(Cc2cccs2)C3)nc1 | -10.8
Cc1cc(NC(=O)NC(C)CO)ccc1OCC(F)(F)F (stereo unspecified) | -2.25
CC(C)Cc1cc(NC(=O)c2ccncc2)n(C)n1 | -11.6
O=C1NC(c2cccnc2)=NC12CCN(CCCc1ccccc1)CC2 | -8.89
CCN(CC)Cc1cn2c(n1)CN(C(=O)Cc1ccsc1)CC2 | -5.15
CC(CN1CCOCC1)OC(=O)c1ccccc1Cl (stereo unspecified) | -19.2
